Measured values from patent US12336981B2, “Compounds and compositions for the inhibition of NAMPT” (Valo Health, Inc., priority 2010, dated 2025).
Where two headings read alike, the source gives them in different places.

What was measured:
NAMPT = target: T1, NAMPT (Homo sapiens, UniProt P43490); assay: Biochemical inhibition assay: NAMPT enzymatic reaction, NMN quantified by mass spectrometry; settings: read-out: Biochem IC50
T1 construct: His tag; host or cells: E. coli
In short: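 Inhibition of E. coli-expressed His-tagged human NAMPT, measured as NMN formation by mass spectrometry after a 30 min room-temperature reaction containing 1 μM NAM, 100 μM PRPP and 2.5 mM ATP.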

A2780 cells = assay: In-vitro cell proliferation assay (SRB), A2780 cells; assay type: cell-based; settings: Homo sapiens, A2780, 72 h, A2780 cells, 72 hours, read-out: A2780 IC50
In short: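 Viable cells measured by SRB staining after 6% TCA fixation, absorbance 570 nm. Media-only background subtracted; % inhibition derived at two compound concentrations.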

T1 sequence (P43490 whole entry): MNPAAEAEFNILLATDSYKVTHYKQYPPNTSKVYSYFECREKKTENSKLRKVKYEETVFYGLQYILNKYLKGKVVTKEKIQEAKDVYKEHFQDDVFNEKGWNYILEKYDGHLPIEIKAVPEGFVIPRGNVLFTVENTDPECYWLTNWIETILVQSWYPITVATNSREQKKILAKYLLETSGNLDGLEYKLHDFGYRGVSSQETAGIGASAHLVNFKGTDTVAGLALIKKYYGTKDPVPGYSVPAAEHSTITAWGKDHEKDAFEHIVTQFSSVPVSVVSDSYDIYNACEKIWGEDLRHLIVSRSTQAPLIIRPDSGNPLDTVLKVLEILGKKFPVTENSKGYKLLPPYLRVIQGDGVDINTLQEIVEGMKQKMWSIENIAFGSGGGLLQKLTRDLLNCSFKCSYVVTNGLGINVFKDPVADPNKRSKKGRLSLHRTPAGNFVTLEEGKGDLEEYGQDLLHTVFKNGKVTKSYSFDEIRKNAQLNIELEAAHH

O=C(NCc1ccc(S(=O)(=O)c2cnc3n2CCCCC3)cc1)c1cc2ccncc2s1 [N-[(4-{5H,6H,7H,8H,9H-imidazo[1,2-a]azepine-3-sulfonyl}phenyl)methyl]thieno[2,3-c]pyridine-2-carboxamide]
IC50 (NAMPT; NAMPT enzymatic assay): 3 nM | IC50 (A2780 cells; SRB): 0.8 nM

O=C(NCc1ccc(S(=O)(=O)c2cnc3ccc(Cl)cn23)cc1)c1cnc2[nH]ncc2c1 [N-[(4-{6-chloroimidazo[1,2-a]pyridine-3-sulfonyl}phenyl)methyl]-1H-pyrazolo[3,4-b]pyridine-5-carboxamide]
IC50 (NAMPT; NAMPT enzymatic assay): 3.3 nM | IC50 (A2780 cells; SRB): 0.8 nM

O=C(NCc1ccc(S(=O)(=O)c2cnc3ccc(Cl)cn23)cc1)c1cc2cnccc2[nH]1 [N-[(4-{6-chloroimidazo[1,2-a]pyridine-3-sulfonyl}phenyl)methyl]-1H-pyrrolo[3,2-c]pyridine-2-carboxamide]
IC50 (NAMPT; NAMPT enzymatic assay): 13.2 nM | IC50 (A2780 cells; SRB): 1.4 nM

O=C(NCc1ccc(S(=O)(=O)c2cnc3ccc(Cl)cn23)cc1)c1cc2ccncc2o1 [N-[(4-{6-chloroimidazo[1,2-a]pyridine-3-sulfonyl}phenyl)methyl]furo[2,3-c]pyridine-2-carboxamide]
IC50 (NAMPT; NAMPT enzymatic assay): 1.2 nM | IC50 (A2780 cells; SRB): 0.4 nM

O=C(NCc1ccc(S(=O)(=O)c2cnc3ccc(Cl)cn23)cc1)c1ccc2nccn2c1 [N-[(4-{6-chloroimidazo[1,2-a]pyridine-3-sulfonyl}phenyl)methyl]imidazo[1,2-a]pyridine-6-carboxamide]
IC50 (NAMPT; NAMPT enzymatic assay): 5.3 nM | IC50 (A2780 cells; SRB): 0.4 nM

O=C(NCc1ccc(S(=O)(=O)c2cnc3ccc(Cl)cn23)cc1)c1cnc2nccn2c1 [N-[(4-{6-chloroimidazo[1,2-a]pyridine-3-sulfonyl}phenyl)methyl]imidazo[1,2-a]pyrimidine-6-carboxamide]
IC50 (NAMPT; NAMPT enzymatic assay): 1.6 nM | IC50 (A2780 cells; SRB): 0.4 nM

O=C(NCc1ccc(S(=O)(=O)c2cnc3ccc(Cl)cn23)cc1)c1cc2ccncc2s1 [N-[(4-{6-chloroimidazo[1,2-a]pyridine-3-sulfonyl}phenyl)methyl]thieno[2,3-c]pyridine-2-carboxamide]
IC50 (NAMPT; NAMPT enzymatic assay): 1.2 nM | IC50 (A2780 cells; SRB): 0.4 nM

O=C(NCc1ccc(S(=O)(=O)N2CC3CCC(C2)O3)cc1)c1cc2cnccc2[nH]1 [N-[(4-{8-oxa-3-azabicyclo[3.2.1]octane-3-sulfonyl}phenyl)methyl]-1H-pyrrolo[3,2-c]pyridine-2-carboxamide]
IC50 (NAMPT; NAMPT enzymatic reaction): 8 nM | IC50 (A2780 cells; SRB assay): 3 nM

O=C(NCc1ccc(S(=O)(=O)N2CC3CCC(C2)O3)cc1)c1ccc2nccn2c1 [N-[(4-{8-oxa-3-azabicyclo[3.2.1]octane-3-sulfonyl}phenyl)methyl]imidazo[1,2-a]pyridine-6-carboxamide]
IC50 (NAMPT; NAMPT enzymatic reaction): 4 nM | IC50 (A2780 cells; SRB assay): 3 nM

O=C(NCc1ccc(S(=O)(=O)N2CC3CCC(C2)O3)cc1)c1cc2ccncc2s1 [N-[(4-{8-oxa-3-azabicyclo[3.2.1]octane-3-sulfonyl}phenyl)methyl]thieno[2,3-c]pyridine-2-carboxamide]
IC50 (NAMPT; NAMPT enzymatic reaction): 15 nM | IC50 (A2780 cells; SRB assay): 3 nM

O=C(NCc1ccc(S(=O)(=O)c2ccc(C(F)(F)F)cc2C(F)(F)F)cc1)c1cnc2[nH]ncc2c1 [N-[(4-{[2,4-bis(trifluoromethyl)benzene]sulfonyl}phenyl)methyl]-1H-pyrazolo[3,4-b]pyridine-5-carboxamide]
IC50 (NAMPT; NAMPT enzymatic assay): 81.6 nM | IC50 (A2780 cells; SRB): 56.2 nM

O=C(NCc1ccc(S(=O)(=O)c2ccc(C(F)(F)F)cc2C(F)(F)F)cc1)c1cc2ccncc2s1 [N-[(4-{[2,4-bis(trifluoromethyl)benzene]sulfonyl}phenyl)methyl]thieno[2,3-c]pyridine-2-carboxamide]
IC50 (NAMPT; NAMPT enzymatic assay): 21.5 nM | IC50 (A2780 cells; SRB): 4.3 nM

O=C(NCc1ccc(S(=O)(=O)c2ccc(C(F)(F)F)cc2OCC(F)(F)F)cc1)c1ccc2nccn2c1 [N-[(4-{[2-(2,2,2-trifluoroethoxy)-4-(trifluoromethyl)benzene]sulfonyl}phenyl)methyl]imidazo[1,2-a]pyridine-6-carboxamide]
IC50 (NAMPT; NAMPT enzymatic assay): 7 nM | IC50 (A2780 cells; SRB): 1.2 nM

O=C(NCc1ccc(S(=O)(=O)Nc2ccccc2CCO)cc1)c1cc2cnccc2[nH]1 [N-[(4-{[2-(2-hydroxyethyl)phenyl]sulfamoyl}phenyl)methyl]-1H-pyrrolo[3,2-c]pyridine-2-carboxamide]
IC50 (NAMPT; NAMPT enzymatic assay): 18.8 nM | IC50 (A2780 cells; SRB): 19.9 nM

O=C(NCc1ccc(S(=O)(=O)c2cc(C(F)(F)F)ccc2OCc2ccccc2)cc1)c1cnc2[nH]ncc2c1 [N-[(4-{[2-(benzyloxy)-5-(trifluoromethyl)benzene]sulfonyl}phenyl)methyl]-1H-pyrazolo[3,4-b]pyridine-5-carboxamide]
IC50 (NAMPT; NAMPT enzymatic assay): 100 to 1000 nM | IC50 (A2780 cells; SRB): 100 to 1000 nM

O=C(NCc1ccc(S(=O)(=O)c2ccccc2OCc2ccccc2)cc1)c1cc2cnccc2[nH]1 [N-[(4-{[2-(benzyloxy)benzene]sulfonyl}phenyl)methyl]-1H-pyrrolo[3,2-c]pyridine-2-carboxamide]
IC50 (NAMPT; NAMPT enzymatic reaction): 18 nM | IC50 (A2780 cells; SRB assay): 33 nM

CN(C)C(=O)c1ccccc1S(=O)(=O)c1ccc(CNC(=O)c2cc3cnccc3[nH]2)cc1 [N-[(4-{[2-(dimethylcarbamoyl)benzene]sulfonyl}phenyl)methyl]-1H-pyrrolo[3,2-c]pyridine-2-carboxamide]
IC50 (NAMPT; NAMPT enzymatic assay): 100 to 1000 nM | IC50 (NAMPT; NAMPT enzymatic reaction): 951 nM | IC50 (A2780 cells; SRB assay): 484 nM | IC50 (A2780 cells; SRB): 100 to 1000 nM

CN(C)C(=O)c1ccccc1S(=O)(=O)c1ccc(CNC(=O)c2ccc3nccn3c2)cc1 [N-[(4-{[2-(dimethylcarbamoyl)benzene]sulfonyl}phenyl)methyl]imidazo[1,2-a]pyridine-6-carboxamide]
IC50 (NAMPT; NAMPT enzymatic assay): > 167 nM | IC50 (A2780 cells; SRB): 100 to 1000 nM

CN(C)C(=O)c1ccccc1S(=O)(=O)c1ccc(CNC(=O)c2cnc3nccn3c2)cc1 [N-[(4-{[2-(dimethylcarbamoyl)benzene]sulfonyl}phenyl)methyl]imidazo[1,2-a]pyrimidine-6-carboxamide]
IC50 (NAMPT; NAMPT enzymatic assay): 100 to 1000 nM | IC50 (A2780 cells; SRB): 1000 to 10000 nM

O=C(NCc1ccc(S(=O)(=O)Nc2ccccc2CO)cc1)c1cc2cnccc2[nH]1 [N-[(4-{[2-(hydroxymethyl)phenyl]sulfamoyl}phenyl)methyl]-1H-pyrrolo[3,2-c]pyridine-2-carboxamide]
IC50 (NAMPT; NAMPT enzymatic reaction): 30 nM | IC50 (A2780 cells; SRB assay): 6 nM

CNS(=O)(=O)c1ccccc1S(=O)(=O)c1ccc(CNC(=O)c2cnc3[nH]ncc3c2)cc1 [N-[(4-{[2-(methylsulfamoyl)benzene]sulfonyl}phenyl)methyl]-1H-pyrazolo[3,4-b]pyridine-5-carboxamide]
IC50 (NAMPT; NAMPT enzymatic assay): > 167 nM | IC50 (A2780 cells; SRB): > 10000 nM

CNS(=O)(=O)c1ccccc1S(=O)(=O)c1ccc(CNC(=O)c2cc3cnccc3[nH]2)cc1 [N-[(4-{[2-(methylsulfamoyl)benzene]sulfonyl}phenyl)methyl]-1H-pyrrolo[3,2-c]pyridine-2-carboxamide]
IC50 (NAMPT; NAMPT enzymatic reaction): 76 nM | IC50 (A2780 cells; SRB assay): 202 nM

O=C(NCc1ccc(S(=O)(=O)Nc2ccccc2N2CCOCC2)cc1)c1cc2cnccc2[nH]1 [N-[(4-{[2-(morpholin-4-yl)phenyl]sulfamoyl}phenyl)methyl]-1H-pyrrolo[3,2-c]pyridine-2-carboxamide]
IC50 (NAMPT; NAMPT enzymatic reaction): 19 nM | IC50 (A2780 cells; SRB assay): 17 nM

O=C(NCc1ccc(S(=O)(=O)c2ccccc2CN2CCOCC2)cc1)c1cc2cnccc2[nH]1 [N-[(4-{[2-(morpholin-4-ylmethyl)benzene]sulfonyl}phenyl)methyl]-1H-pyrrolo[3,2-c]pyridine-2-carboxamide]
IC50 (NAMPT; NAMPT enzymatic reaction): 34 nM | IC50 (A2780 cells; SRB assay): 6 nM

O=C(NCc1ccc(S(=O)(=O)c2ccccc2CN2CCOCC2)cc1)c1ccc2nccn2c1 [N-[(4-{[2-(morpholin-4-ylmethyl)benzene]sulfonyl}phenyl)methyl]imidazo[1,2-a]pyridine-6-carboxamide]
IC50 (NAMPT; NAMPT enzymatic assay): 136 nM | IC50 (A2780 cells; SRB): 34.2 nM

O=C(NCc1ccc(S(=O)(=O)c2ccccc2CN2CCOCC2)cc1)c1cc2ccncc2s1 [N-[(4-{[2-(morpholin-4-ylmethyl)benzene]sulfonyl}phenyl)methyl]thieno[2,3-c]pyridine-2-carboxamide]
IC50 (NAMPT; NAMPT enzymatic reaction): 13 nM | IC50 (A2780 cells; SRB assay): 3.6 nM

O=C(NCc1ccc(S(=O)(=O)Nc2ccccc2N2CCCCC2)cc1)c1cc2cnccc2[nH]1 [N-[(4-{[2-(piperidin-1-yl)phenyl]sulfamoyl}phenyl)methyl]-1H-pyrrolo[3,2-c]pyridine-2-carboxamide]
IC50 (NAMPT; NAMPT enzymatic reaction): 72 nM | IC50 (A2780 cells; SRB assay): 8 nM

CC(C)Oc1ccccc1NS(=O)(=O)c1ccc(CNC(=O)c2cc3cnccc3[nH]2)cc1 [N-[(4-{[2-(propan-2-yloxy)phenyl]sulfamoyl}phenyl)methyl]-1H-pyrrolo[3,2-c]pyridine-2-carboxamide]
IC50 (NAMPT; NAMPT enzymatic reaction): 3 nM | IC50 (A2780 cells; SRB assay): 1 nM

O=C(NCc1ccc(NS(=O)(=O)c2ccccc2OC(F)(F)F)cc1)c1cc2cnccc2[nH]1 [N-[(4-{[2-(trifluoromethoxy)benzene]sulfonamido}phenyl)methyl]-1H-pyrrolo[3,2-c]pyridine-2-carboxamide]
IC50 (NAMPT; NAMPT enzymatic reaction): 3 nM | IC50 (A2780 cells; SRB assay): 1 nM

O=C(NCc1ccc(S(=O)(=O)c2ccccc2OC(F)(F)F)cc1)c1cnc2nccn2c1 [N-[(4-{[2-(trifluoromethoxy)benzene]sulfonyl}phenyl)methyl]imidazo[1,2-a]pyrimidine-6-carboxamide]
IC50 (NAMPT; NAMPT enzymatic assay): 2.4 nM | IC50 (A2780 cells; SRB): 11.5 nM

O=C(NCc1ccc(S(=O)(=O)c2ccccc2OC(F)(F)F)cc1)c1cc2ccncc2s1 [N-[(4-{[2-(trifluoromethoxy)benzene]sulfonyl}phenyl)methyl]thieno[2,3-c]pyridine-2-carboxamide]
IC50 (NAMPT; NAMPT enzymatic reaction): 4 nM | IC50 (A2780 cells; SRB assay): 2.8 nM

O=C(NCc1ccc(S(=O)(=O)c2ccccc2C(F)(F)F)cc1)c1cc2cnccc2[nH]1 [N-[(4-{[2-(trifluoromethyl)benzene]sulfonyl}phenyl)methyl]-1H-pyrrolo[3,2-c]pyridine-2-carboxamide]
IC50 (NAMPT; NAMPT enzymatic reaction): 22 nM | IC50 (A2780 cells; SRB assay): 25 nM

O=C(NCc1ccc(S(=O)(=O)c2ccccc2C(F)(F)F)cc1)c1ccc2nccn2c1 [N-[(4-{[2-(trifluoromethyl)benzene]sulfonyl}phenyl)methyl]imidazo[1,2-a]pyridine-6-carboxamide]
IC50 (NAMPT; NAMPT enzymatic assay): 34.1 nM | IC50 (A2780 cells; SRB): 57.9 nM
